Experimental findings from patent US9873696B2, “Neprilysin inhibitors” (THERAVANCE BIOPHARMA R&D IP, LLC, priority 2010, dated 2018) are described below.

pKi: −log10 of the molar value. A value given as a limit tells only on which side of the number the result lay.

The assay deals with T1, human NEP (Homo sapiens, UniProt P08473).
T1 construct: purchased R&D Systems, Minneapolis, Minn; 1182-ZN
T1 sequence (P08473 whole entry): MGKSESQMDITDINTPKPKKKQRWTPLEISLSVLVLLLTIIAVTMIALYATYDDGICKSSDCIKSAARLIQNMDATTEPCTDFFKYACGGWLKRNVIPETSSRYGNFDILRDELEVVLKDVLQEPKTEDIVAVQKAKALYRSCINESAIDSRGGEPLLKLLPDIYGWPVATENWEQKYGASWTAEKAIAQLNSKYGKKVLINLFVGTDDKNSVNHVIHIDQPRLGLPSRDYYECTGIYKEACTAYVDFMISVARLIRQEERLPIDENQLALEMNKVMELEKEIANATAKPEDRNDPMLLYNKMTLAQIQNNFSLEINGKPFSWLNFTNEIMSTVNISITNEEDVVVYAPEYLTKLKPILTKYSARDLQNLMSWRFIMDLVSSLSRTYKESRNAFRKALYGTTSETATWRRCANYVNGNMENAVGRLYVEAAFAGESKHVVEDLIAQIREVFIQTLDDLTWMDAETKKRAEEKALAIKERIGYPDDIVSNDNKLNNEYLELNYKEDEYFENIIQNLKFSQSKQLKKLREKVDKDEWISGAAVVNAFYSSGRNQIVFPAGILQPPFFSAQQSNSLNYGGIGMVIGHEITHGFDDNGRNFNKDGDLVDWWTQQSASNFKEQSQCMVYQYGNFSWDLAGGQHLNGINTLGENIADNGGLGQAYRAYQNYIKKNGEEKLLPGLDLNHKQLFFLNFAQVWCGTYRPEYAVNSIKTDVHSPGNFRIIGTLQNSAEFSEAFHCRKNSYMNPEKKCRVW
The assay is described as follows: In vitro enzyme inhibition assay at human NEP (Assay 1). The following applies: recombinant enzyme, fluorogenic peptide substrate, 37° C. The format is biochemical. The method, boiled down: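 Recombinant enzyme preincubated with compound 30 min at 37 °C, then 10 μM Mca-D-Arg-Arg-Leu-Dap-(Dnp)-OH added in 50 mM HEPES pH 7.5, 100 mM NaCl, 0.01% Tween-20, 10 μM ZnSO4; stopped after 20 min with acetic acid. Fluorescence read at 320/405 nm; Ki from nonlinear fit of v=v0/[1+(I/K′)], reported as pKi.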
For the compound `CCCCc1cc(C(=O)NN(Cc2ccc(-c3cc(Cl)ccc3F)cc2)C[C@@H](O)C(=O)O)[nH]n1` [Example 8-42, (R)-3-[N′-(5-Butyl-2H-pyrazole-3-carbonyl)-N-(5′-chloro-2′-fluoro-biphenyl-4-ylmethyl)-hydrazino]-2-hydroxy-propionic acid], the negative-log Ki (pKi) is no less than 9.00.
As to `O=C(NN(Cc1ccc(-c2ccccc2)cc1)C[C@H](O)C(=O)O)c1cnc2[nH]nnc2c1` [Example 2-22, (S)-3-[N-Biphenyl-4-ylmethyl-N′-(3H-[1,2,3]triazolo[4,5-b]pyridine-6-carbonyl)hydrazino]-2-hydroxypropionic acid], the pKi is 6.00 to 6.90.
The value for `O=C(NN(Cc1ccc(-c2cc(F)cc(F)c2)cc1)C[C@H](O)C(=O)O)c1cc(O)no1` [Example 8-26, (S)-3-[N-(3′,5′-Difluoro-biphenyl-4-ylmethyl)-N′-(3-hydroxy-isoxazole-5-carbonyl)-hydrazino]-2-hydroxy-propionic acid] was 7.00 to 7.90; that for `O=C(NN(Cc1ccc(-c2cc(Cl)ccc2F)cc1)C[C@@H](O)C(=O)O)c1ccc(=O)[nH]n1` [Example 8-58, (R)-3-[N-(5′-Chloro-2′-fluoro-biphenyl-4-ylmethyl)-N′-(6-oxo-1,6-dihydro-pyridazine-3-carbonyl)-hydrazino]-2-hydroxy-propionic acid] was no less than 9.00; that for `Cc1c(Cl)cc(Cl)cc1-c1ccc(CN(C[C@H](O)C(=O)O)NC(=O)c2cc(O)no2)cc1` [Example 8-28, (S)-3-[N-(3′,5′-Dichloro-2′-methyl-biphenyl-4-ylmethyl)-N′-(3-hydroxy-isoxazole-5-carbonyl)-hydrazino]-2-hydroxy-propionic acid] was 7.00 to 7.90.
The value for `CC(C)c1cc(C(=O)NN(Cc2ccc(-c3cc(Cl)ccc3F)cc2)C[C@@H](O)C(=O)O)on1` [Example 8-32, (R)-3-[N-(5′-Chloro-2′-fluoro-biphenyl-4-ylmethyl)-N′-(3-isopropyl-isoxazole-5-carbonyl)-hydrazino]-2-hydroxy-propionic acid] was no less than 9.00.
Under `O=C(NN(Cc1ccc(-c2ccccc2)cc1)C[C@H](O)C(=O)O)c1cc(Cl)c2[nH]nnc2c1` [Example 2-25, (S)-3-[N-Biphenyl-4-ylmethyl-N′-(7-chloro-1H-benzotriazole-5-carbonyl)-hydrazino]-2-hydroxypropionic acid] stands 6.00 to 6.90; under `Cc1cccc(-c2ccc(CN(C[C@H](O)C(=O)O)NC(=O)c3cc(O)no3)cc2)c1` [Example 5-4, (S)-2-Hydroxy-3-[N′-(3-hydroxy-isoxazole-5-carbonyl)-N-(3′-methyl-biphenyl-4-ylmethyl)-hydrazino]-propionic acid], no less than 9.00.
As to `O=C(NN(Cc1ccc(-c2cc(Cl)ccc2F)cc1)C[C@@H](O)C(=O)O)c1cc(O)n(-c2ccccc2F)n1` [Example 8-52, (R)-3-{N-(5′-Chloro-2′-fluoro-biphenyl-4-ylmethyl)-N′-[1-(2-fluoro-phenyl)-5-hydroxy-1H-pyrazole-3-carbonyl]-hydrazino}-2-hydroxy-propionic acid], the pKi was 8.00 to 8.90.
Under `O=C(NN(Cc1ccc(-c2cccc(Cl)c2)cc1)C[C@@H](O)C(=O)O)c1cc(-c2ccccn2)n[nH]1` [Example 4-21, (R)-3-[N-(3′-Chlorobiphenyl-4-ylmethyl)-N′-(5-pyridin-2-yl-2H-pyrazole-3-carbonyl)-hydrazino]-2-hydroxy-propionic acid] stands 8.00 to 8.90; under `CCCc1cc(C(=O)NN(Cc2ccc(-c3cc(Cl)ccc3F)cc2)C[C@@H](O)C(=O)O)on1` [Example 8-31, (R)-3-[N-(5′-Chloro-2′-fluoro-biphenyl-4-ylmethyl)-N′-(3-propyl-isoxazole-5-carbonyl)-hydrazino]-2-hydroxy-propionic acid], no less than 9.00; under `CC(C)c1cc(C(=O)NN(Cc2ccc(-c3cc(Cl)ccc3F)cc2)C[C@@H](O)C(=O)O)[nH]n1` [Example 8-44, (R)-3-[N-(5′-Chloro-2′-fluoro-biphenyl-4-ylmethyl)-N′-(5-isopropyl-2H-pyrazole-3-carbonyl)-hydrazino]-2-hydroxy-propionic acid], no less than 9.00.
For `CC(C)(O)c1cc(C(=O)NN(Cc2ccc(-c3cc(Cl)ccc3F)cc2)C[C@@H](O)C(=O)O)nn1CC(=O)O` [Example 8-56, (R)-3-[N′-[1-Carboxymethyl-5-(1-hydroxy-1-methyl-ethyl)-1H-pyrazole-3-carbonyl]-N-(5′-chloro-2′-fluoro-biphenyl-4-ylmethyl)-hydrazino]-2-hydroxy-propionic acid], the negative-log Ki (pKi) was 8.00 to 8.90.
Under `O=C(NN(Cc1ccc(-c2ccccc2)cc1)C[C@H](O)C(=O)O)c1cc(F)c2[nH]nnc2c1` [Example 2-24, (S)-3-[N-Biphenyl-4-ylmethyl-N′-(7-fluoro-1H-benzotriazole-5-carbonyl)-hydrazino]-2-hydroxypropionic acid] stands 6.00 to 6.90; under `O=C(NN(Cc1ccc(-c2ccccc2F)cc1)C[C@@H](O)C(=O)O)c1cc(O)no1` [Example 5-8, (R)-3-[N-(2′-Fluoro-biphenyl-4-ylmethyl)-N′-(3-hydroxy-isoxazole-5-carbonyl)-hydrazino]-2-hydroxy-propionic acid], 8.00 to 8.90.
Turning to `O=C(NN(Cc1ccc(-c2cccc(Cl)c2)cc1)C[C@@H](O)C(=O)O)c1cnc(-c2ccccc2)o1` [Example 4-28, (R)-3-[N-(3′-Chlorobiphenyl-4-ylmethyl)-N′-(2-phenyl-oxazole-5-carbonyl)-hydrazino]-2-hydroxy-propionic acid], the negative-log Ki (pKi) was 7.00 to 7.90.
`COc1ccccc1-c1cc(C(=O)NN(Cc2ccc(-c3cc(Cl)ccc3F)cc2)C[C@@H](O)C(=O)O)on1` [Example 8-15, (R)-3-{N-(5′-Chloro-2′-fluoro-biphenyl-4-ylmethyl)-N′-[3-(2-methoxy-phenyl)-isoxazole-5-carbonyl]-hydrazino}-2-hydroxy-propionic acid]: the negative-log Ki (pKi) was no less than 9.00.
The value for `O=C(NN(Cc1ccc(-c2cc(Cl)ccc2F)cc1)C[C@@H](O)C(=O)O)c1nn(-c2cccc(Cl)c2)c(=O)[nH]1` [Example 8-67, (R)-3-{N-(5′-Chloro-2′-fluoro-biphenyl-4-ylmethyl)-N′-[1-(3-chloro-phenyl)-5-oxo-4,5-dihydro-1H-[1,2,4]triazole-3-carbonyl]-hydrazino}-2-hydroxy-propionic acid] was no less than 9.00; that for `COc1ccccc1-c1cc(C(=O)NN(Cc2ccc(-c3cc(Cl)ccc3F)cc2)C[C@@H](O)C(=O)O)[nH]n1` [Example 8-39, (R)-3-{N-(5′-Chloro-2′-fluoro-biphenyl-4-ylmethyl)-N′-[5-(2-methoxy-phenyl)-2H-pyrazole-3-carbonyl]-hydrazino}-2-hydroxy-propionic acid] was no less than 9.00; that for `O=C(O)c1cc(C(=O)NN(Cc2ccc(-c3ccccc3)cc2)C[C@@H](O)C(=O)O)[nH]n1` [Example 1, 5-[N′-Biphenyl-4-ylmethyl-N′-((R)-2-carboxy-2-hydroxyethyl)hydrazinocarbonl]-1H-pyrazole-3-carboxylic Acid] was no less than 9.00.
For `O=C(NN(Cc1ccc(-c2ccccc2)cc1)C[C@@H](O)C(=O)O)c1cc(C(=O)N2CC=CC2)n[nH]1` [Example 2-13, (R)-3-{N-Biphenyl-4-ylmethyl-N′-[5-(2,5-dihydro-pyrrole-1-carbonyl)-2H-pyrazole-3-carbonyl]hydrazino}-2-hydroxypropionic acid], the pKi is 8.00 to 8.90.

One may read the pKi as −log10 of the Ki, conventionally taken in molar units.
